The target of one experiment is T1, HDAC7 (Homo sapiens, UniProt Q8WUI4).
T1 construct: purchased Eurofins (contracted assay service)
T1 sequence (Q8WUI4 1-952): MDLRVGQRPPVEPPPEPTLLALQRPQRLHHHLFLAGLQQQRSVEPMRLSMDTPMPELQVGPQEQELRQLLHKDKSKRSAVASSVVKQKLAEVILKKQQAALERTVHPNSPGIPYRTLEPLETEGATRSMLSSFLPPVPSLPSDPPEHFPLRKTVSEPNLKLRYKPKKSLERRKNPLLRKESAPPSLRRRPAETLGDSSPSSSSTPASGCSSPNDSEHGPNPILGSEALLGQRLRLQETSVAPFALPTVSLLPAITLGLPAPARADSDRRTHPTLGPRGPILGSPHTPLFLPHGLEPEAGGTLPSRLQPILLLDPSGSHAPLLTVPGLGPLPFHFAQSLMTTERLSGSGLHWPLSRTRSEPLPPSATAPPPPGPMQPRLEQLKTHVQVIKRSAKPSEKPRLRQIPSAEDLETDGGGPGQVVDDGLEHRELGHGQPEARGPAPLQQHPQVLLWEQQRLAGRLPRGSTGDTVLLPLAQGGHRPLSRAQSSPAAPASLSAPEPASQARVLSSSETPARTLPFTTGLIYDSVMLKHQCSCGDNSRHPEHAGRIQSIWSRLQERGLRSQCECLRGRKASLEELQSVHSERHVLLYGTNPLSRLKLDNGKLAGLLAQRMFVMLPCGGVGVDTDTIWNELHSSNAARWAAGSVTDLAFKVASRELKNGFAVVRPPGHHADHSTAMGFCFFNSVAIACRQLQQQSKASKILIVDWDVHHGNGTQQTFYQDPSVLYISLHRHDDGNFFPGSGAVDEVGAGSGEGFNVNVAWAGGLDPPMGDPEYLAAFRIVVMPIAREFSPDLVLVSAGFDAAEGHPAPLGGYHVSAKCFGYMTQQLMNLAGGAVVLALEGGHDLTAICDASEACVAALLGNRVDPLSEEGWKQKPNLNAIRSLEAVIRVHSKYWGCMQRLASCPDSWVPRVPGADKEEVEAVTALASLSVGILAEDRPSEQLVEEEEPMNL
The experiment can be described thus: HDAC assay (Eurofins). In kind it is biochemical.

The target in a further experiment is T2, CeCR2 (Homo sapiens, UniProt Q9BXF3).
T2 construct: purchased BPS Bioscience (contracted assay service)
The experiment in a line: Epigenetic panel (BPS Bioscience). The class given is binding. An excerpt:
(§1) The selectivity of CM-444 and CM-1758 against other epigenetic targets, including histone demethylase (JMJD2A, JMJD2B, JMJD2C, JMJD2D, JMJD2E, JMJD3, JMJD1A, LSD1, Jarid1A, Jarid1B, Jarid1C, FBXL10, FBXL11, JHDM1D, JMJD1B, PHF8, LSD2 and UTX); histone acetyltransferases (GCN5, P300); histone methyltransferases (G9a, GLP, MLL1, SET7/9, SUV39H1, SUV39H2, PRMT1, PRMT3, PRMT4, PRMT5, PRMT6, PRMT8, PRMT9, NSD1, NSD2, EZH1, EZH2, SETDB1, SETD2, SET8, SUV4-20H1, SMYD2, SMYD3, DOT1L, EZH2 (A677G), EZH2 (A677G), EZH2 (A738T), EZH2 (Y641S), EZH2 (P132S), EZH2 (Y641C), EZH2 (Y641F), EZH2 (Y641H), EZH2 (Y641N)); bromodomains (ATAD2B, ATAD2A, BRD1, BRD9, BPTF/FALZ, CeCR2, BRPF3, BRD3 (BD1 + BD2), BAZ2B, WDR9, TAF1 (BD2), TAF1L (BD2), TAF1L (BD1 + BD2), BRD2 (BD1), BRD2 (BD2), BRD2 (BD1 + BD2), BRD3 (BD1), BRD3 (BD2), BRD4 (BD1), BRD4 (BD2), BRD4 (BD1 + BD2), BRDT (BD1), BRDT (BD1 + BD2), CREBBP, SMARCA2A, SMARCA4/BRG1); DNA methyltranferases (DNMT1, DNMT3A/3L and DNMT3B/3L), and sirtuin histone deacetylases (SIRT1, SIRT2, SIRT3, SIRT5 and SIRT6), were determined by BPS Bioscience (http://www.bpsbioscience.com/index.ph). Binding experiments were performed in duplicate at a concentration of 10 μM.

In another experiment the target is T3, TAF1L (BD2) (Homo sapiens, UniProt Q8IZX4).
T3 construct: purchased BPS Bioscience; Eurofins (HDAC4, 5, 7-11)
The experiment in a line: Epigenetic panel (BPS Bioscience). In kind it is binding.
Description: as §1

The target in a further experiment is T4, TAF1 (BD2) (Homo sapiens, UniProt P21675).
T4 construct: purchased BPS Bioscience; Eurofins (HDAC4, 5, 7-11)
The experiment can be described thus: Epigenetic panel (BPS Bioscience). In kind it is binding.
Description: as §1

The target of another experiment is T5, BRD3 (BD2) (Homo sapiens, UniProt Q15059).
T5 construct: purchased BPS Bioscience; Eurofins (HDAC4, 5, 7-11)
The experiment in a line: Epigenetic panel (BPS Bioscience). In kind it is binding.
Description: as §1

The target in the next experiment is T6, CREBBP (Homo sapiens, UniProt Q92793).
T6 construct: purchased BPS Bioscience; Eurofins (HDAC4, 5, 7-11)
The experiment can be described thus: Epigenetic panel (BPS Bioscience). The class given is binding.
Description: as §1

The test system of a further experiment is HL-60. The experiment in a line: Cell-cycle analysis. In kind it is cell-based, human. Particulars: HL-60, treatment for 48 hours; replicates 1-3 (Figure 2F). How it is done: […] Next, the cells were washed twice with PBS and resuspended in 0.2% Tween 20 in PBS and 0.5 mg/mL Rnase A (Ribonuclease A Type III-A from bovine pancreas, Cat No. R5125, Sigma), and then incubated for 30 min at 37 °C. Subsequently, the cells were stained with 25 μg/mL of propidium iodide (Cat No P4170, Sigma) and analyzed using a BD FACSCanto flow cytometer (Becton Dickinson, San Jose, CA, USA).

For experiment [1], the system named is global 5-methylcytosine levels in HL-60, ML-2, MV4-11 and MOLM-13 cell lines. The experiment in a line: Dot blot. In kind it is cell-based, human. The conditions noted are these: HL-60, 270 nM CM-444 or 300 nM CM-1758, 48 h. How it is done: DNA purity and concentration were measured using a NanoDrop spectrophotometer (Thermo Scientific). A 500 ng amount of genomic DNA was loaded onto a nitrocellulose membrane (Amersham Hybond_N+, RPN203B, GE Healthcare), pre-wetted in 6X SSC for 10 min, using the Bio-Dot microfiltration apparatus (Cat No 170-6545, Bio-Rad) following the manufacturer’s instructions. Next, the membrane was incubated with 2X SSC for 5 min and cross-linked for 2 h at 80 °C. The membrane, after being blocked with Tropix I-block blocking reagent (Cat No AI300, Tropix) in PBS with 0.1% Tween 20 and 0.02 NaN3, was incubated with the primary antibody against 5-methylcytosine (monoclonal antibody 5-methylcytidine, Cat No BI-MECY-1000, Eurogentec) diluted 1:4000 o/n at 4 °C and then with alkaline phosphatase-conjugated secondary antibody. […] To ensure equal loading of total DNA on the membrane, the same blot was stained with 0.02% methylene blue in 0.3 M sodium acetate (pH 5.2).

Here are results for 2 compounds from PMC11219871, “Epigenetic-based differentiation therapy for Acute Myeloid Leukemia” (Nature Communications, 2024).

“And” between values parts separate entries of the source, which are not always exact repeats. Equal values may be shown once.

T2 sequence (Q9BXF3 whole entry): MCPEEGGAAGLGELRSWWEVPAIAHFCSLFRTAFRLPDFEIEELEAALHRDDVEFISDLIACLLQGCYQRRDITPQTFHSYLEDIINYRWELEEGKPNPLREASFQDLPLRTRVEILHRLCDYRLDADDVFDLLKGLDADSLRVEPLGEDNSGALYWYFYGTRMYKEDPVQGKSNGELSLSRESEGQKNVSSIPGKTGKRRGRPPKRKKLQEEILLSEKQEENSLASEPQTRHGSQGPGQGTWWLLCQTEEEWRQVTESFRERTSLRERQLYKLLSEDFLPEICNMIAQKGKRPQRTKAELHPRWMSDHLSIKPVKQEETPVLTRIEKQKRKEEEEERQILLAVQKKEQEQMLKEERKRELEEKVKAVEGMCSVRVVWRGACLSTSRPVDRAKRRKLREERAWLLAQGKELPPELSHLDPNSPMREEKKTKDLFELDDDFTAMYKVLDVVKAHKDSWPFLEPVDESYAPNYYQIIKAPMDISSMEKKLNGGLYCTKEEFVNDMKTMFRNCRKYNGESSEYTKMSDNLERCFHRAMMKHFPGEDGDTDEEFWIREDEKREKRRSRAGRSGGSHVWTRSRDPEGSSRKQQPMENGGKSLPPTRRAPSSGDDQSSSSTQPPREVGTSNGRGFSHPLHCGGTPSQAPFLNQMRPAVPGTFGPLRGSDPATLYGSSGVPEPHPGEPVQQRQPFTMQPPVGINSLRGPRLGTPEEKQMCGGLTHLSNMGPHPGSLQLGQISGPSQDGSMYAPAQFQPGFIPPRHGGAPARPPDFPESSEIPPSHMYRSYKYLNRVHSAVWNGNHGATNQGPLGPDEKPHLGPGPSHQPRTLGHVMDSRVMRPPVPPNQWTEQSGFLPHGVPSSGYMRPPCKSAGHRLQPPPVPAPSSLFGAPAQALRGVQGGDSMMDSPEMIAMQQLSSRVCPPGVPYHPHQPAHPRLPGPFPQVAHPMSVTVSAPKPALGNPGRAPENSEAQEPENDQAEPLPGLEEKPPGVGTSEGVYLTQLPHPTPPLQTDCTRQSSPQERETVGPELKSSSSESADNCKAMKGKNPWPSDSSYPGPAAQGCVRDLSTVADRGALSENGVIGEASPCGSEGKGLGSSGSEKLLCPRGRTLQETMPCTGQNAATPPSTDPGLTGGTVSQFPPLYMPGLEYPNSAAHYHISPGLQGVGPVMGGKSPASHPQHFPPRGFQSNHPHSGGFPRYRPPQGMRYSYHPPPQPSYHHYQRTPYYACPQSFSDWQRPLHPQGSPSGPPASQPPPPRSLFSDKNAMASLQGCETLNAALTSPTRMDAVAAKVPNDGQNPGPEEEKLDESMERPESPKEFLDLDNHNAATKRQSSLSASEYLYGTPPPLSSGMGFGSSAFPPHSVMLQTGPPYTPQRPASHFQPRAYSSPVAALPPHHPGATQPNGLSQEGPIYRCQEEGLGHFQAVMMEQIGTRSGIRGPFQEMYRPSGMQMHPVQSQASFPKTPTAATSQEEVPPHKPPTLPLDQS
T4 sequence (P21675 1522-1656 limits assumed): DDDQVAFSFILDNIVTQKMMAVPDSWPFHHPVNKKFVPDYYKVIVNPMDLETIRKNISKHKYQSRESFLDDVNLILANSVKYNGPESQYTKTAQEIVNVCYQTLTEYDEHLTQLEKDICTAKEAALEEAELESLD
T5 sequence (Q15059 306-419 limits assumed): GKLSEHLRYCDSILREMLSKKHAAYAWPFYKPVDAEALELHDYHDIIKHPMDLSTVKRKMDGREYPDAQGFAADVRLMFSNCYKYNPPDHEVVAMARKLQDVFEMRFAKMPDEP
T6 sequence (Q92793 whole entry): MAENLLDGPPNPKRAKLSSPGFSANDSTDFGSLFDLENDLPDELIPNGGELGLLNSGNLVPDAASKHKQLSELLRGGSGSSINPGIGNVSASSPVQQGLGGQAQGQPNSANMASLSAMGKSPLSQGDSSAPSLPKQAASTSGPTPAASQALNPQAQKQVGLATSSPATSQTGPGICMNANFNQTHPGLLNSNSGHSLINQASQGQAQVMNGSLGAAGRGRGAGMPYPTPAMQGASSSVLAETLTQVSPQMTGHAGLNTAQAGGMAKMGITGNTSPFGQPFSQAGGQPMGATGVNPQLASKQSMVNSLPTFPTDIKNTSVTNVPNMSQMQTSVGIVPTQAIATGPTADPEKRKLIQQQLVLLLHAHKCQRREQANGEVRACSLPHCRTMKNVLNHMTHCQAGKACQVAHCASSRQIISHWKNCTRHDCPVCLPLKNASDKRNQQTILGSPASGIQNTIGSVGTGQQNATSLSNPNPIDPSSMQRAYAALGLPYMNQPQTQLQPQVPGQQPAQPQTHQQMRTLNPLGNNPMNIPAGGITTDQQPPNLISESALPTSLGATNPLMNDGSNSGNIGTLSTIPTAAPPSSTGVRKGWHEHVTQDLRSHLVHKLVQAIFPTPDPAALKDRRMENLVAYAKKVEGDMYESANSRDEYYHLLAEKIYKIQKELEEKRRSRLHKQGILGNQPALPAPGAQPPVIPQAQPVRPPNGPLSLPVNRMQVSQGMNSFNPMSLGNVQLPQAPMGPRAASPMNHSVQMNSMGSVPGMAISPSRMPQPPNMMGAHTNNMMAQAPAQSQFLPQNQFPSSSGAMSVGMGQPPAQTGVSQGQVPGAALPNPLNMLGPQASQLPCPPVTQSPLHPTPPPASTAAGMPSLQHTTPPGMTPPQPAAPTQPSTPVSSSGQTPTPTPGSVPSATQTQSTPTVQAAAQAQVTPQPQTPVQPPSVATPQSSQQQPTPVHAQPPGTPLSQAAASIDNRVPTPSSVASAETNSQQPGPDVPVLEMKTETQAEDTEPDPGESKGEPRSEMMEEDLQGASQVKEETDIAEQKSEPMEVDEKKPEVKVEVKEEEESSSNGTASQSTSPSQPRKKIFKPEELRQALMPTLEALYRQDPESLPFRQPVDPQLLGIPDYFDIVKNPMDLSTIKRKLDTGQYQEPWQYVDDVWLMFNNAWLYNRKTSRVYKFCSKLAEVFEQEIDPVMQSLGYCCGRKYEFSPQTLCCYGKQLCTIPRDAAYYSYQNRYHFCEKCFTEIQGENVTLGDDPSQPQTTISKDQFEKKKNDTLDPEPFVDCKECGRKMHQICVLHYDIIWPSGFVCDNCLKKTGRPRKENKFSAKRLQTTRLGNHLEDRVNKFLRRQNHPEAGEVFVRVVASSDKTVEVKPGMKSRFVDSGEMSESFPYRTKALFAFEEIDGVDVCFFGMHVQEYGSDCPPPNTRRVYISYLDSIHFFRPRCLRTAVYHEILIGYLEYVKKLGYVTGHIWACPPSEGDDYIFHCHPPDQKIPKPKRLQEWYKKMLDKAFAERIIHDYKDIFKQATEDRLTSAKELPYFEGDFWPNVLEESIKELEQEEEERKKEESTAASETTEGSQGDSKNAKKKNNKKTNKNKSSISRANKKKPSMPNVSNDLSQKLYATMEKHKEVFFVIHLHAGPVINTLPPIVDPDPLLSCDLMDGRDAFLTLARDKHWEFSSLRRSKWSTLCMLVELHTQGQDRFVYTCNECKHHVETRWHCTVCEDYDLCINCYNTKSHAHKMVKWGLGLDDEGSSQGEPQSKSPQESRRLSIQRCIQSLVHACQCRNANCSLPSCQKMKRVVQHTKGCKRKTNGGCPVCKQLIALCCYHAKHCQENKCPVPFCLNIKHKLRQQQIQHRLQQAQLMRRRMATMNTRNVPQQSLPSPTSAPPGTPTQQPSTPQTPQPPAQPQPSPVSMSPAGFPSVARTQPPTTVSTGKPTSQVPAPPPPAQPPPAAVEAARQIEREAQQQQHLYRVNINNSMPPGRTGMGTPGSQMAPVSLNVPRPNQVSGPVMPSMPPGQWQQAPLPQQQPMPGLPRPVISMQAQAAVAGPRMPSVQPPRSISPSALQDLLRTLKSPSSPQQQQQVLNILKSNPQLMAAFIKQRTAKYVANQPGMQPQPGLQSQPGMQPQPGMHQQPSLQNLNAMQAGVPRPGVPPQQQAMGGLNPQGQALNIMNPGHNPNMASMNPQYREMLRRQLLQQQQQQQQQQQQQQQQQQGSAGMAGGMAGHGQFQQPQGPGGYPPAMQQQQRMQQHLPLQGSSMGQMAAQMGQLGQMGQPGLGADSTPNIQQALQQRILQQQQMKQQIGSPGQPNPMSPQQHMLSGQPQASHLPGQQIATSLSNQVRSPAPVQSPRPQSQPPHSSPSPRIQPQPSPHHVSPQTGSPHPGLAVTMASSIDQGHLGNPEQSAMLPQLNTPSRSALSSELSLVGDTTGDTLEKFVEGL
T3 sequence (Q8IZX4 1523-1654 limits assumed): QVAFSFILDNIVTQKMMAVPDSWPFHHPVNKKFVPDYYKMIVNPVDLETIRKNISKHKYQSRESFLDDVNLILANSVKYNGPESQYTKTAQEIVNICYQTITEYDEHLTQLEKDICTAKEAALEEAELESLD

By IC50 is commonly meant the concentration that gives 50% inhibition. A high value points to a need for much substance. For orientation: inhibition means the drop in the measured response relative to a control, in per cent. On to `COc1cc2nc(-c3ccc(C)o3)cc(NCC3CCN(c4ncc(C(=O)NO)cn4)CC3)c2cc1OC` [CM-444, 2-[4-[[[6,7-dimethoxy-2-(5-methyl-2-furyl)-4-quinolyl]amino]methyl]-1-piperidyl]pyrimidine-5-carbohydroxamic acid], for which 120 nM corresponded to half-maximal inhibition at HDAC7 (IC50). Moreover, the inhibition at 10 µM was found to be 89% against HDAC7; 0% against CeCR2; 0% at TAF1L (BD2); 0% against TAF1 (BD2); 0% on BRD3 (BD2); 0% at CREBBP. For the same compound, the “Cell number (%) G1” value in the experiment on HL-60 was 96.96% and 93.22% and 91.97%. Also, the “Cell number (%) G2/M” value in the experiment on HL-60 was 4.36% and 1.34% and 3.53%. Moreover, the “Cell number (%) S” value in the experiment with HL-60 was 1.70% and 3.26% and 3.67%. Also, in experiment [1], the “5mC level (dot blot)” value is listed as “no changes”.

With `COc1cc2nc(-c3cc(C)oc3C)cc(NCC3CCN(c4ncc(C(=O)NO)cn4)CC3)c2cc1OC` [CM-1758, 2-[4-[[[2-(2,5-dimethyl-3-furyl)-6,7-dimethoxy-4-quinolyl]amino]methyl] -1-piperidyl]pyrimidine-5-carbohydroxamic acid], the IC50 at HDAC7 is 120 nM; against CeCR2, 930 nM. For the same compound, the inhibition at 10 µM came to 89% at HDAC7; 72% against CeCR2; 0% at TAF1L (BD2); 0% against TAF1 (BD2); 0% on BRD3 (BD2); 6% at CREBBP. Further, the “Cell number (%) G1” value in the experiment on HL-60 was 79.37% and 83.97% and 81.85%. In addition, the “Cell number (%) G2/M” value in the experiment on HL-60 is 6.97% and 12.93% and 5.78%. The “Cell number (%) S” value in the experiment on HL-60 is 7.70% and 10.26% and 11.19%. In experiment [1], the “5mC level (dot blot)” value is listed as “no changes”.
